The experiment addresses T1, ΔF508-CFTR (Homo sapiens, UniProt P13569, DEL508-508).
T1 construct: host or cells: CFBE41o-, doxycycline-inducible
Kind of experiment: CFTR cell surface levels using HRP-tagged ΔF508-CFTR expressing CFBE cells, in the presence of a co-corrector. Conditions: HRP-tagged ΔF508-CFTR expressing CFBE cells, in the presence of 3 μM co-corrector; for EC50: read-out: EC50. The format is cell-based. An excerpt: Measuring CFTR Cell Surface Levels Using HRP-Tagged AF508-CFTR Expressing CFBE Cells
The HRP-tagged AF508-CFTR cell assay measures the expression of CFTR-ΔF508 at the plasma membrane. CFTR-ΔF508 has a folding defect leading to absence of protein at the plasma membrane. This assay is used to evaluate the capacity of compounds to increase the expression of CFTR-ΔF508 at the plasma membrane. The CFTR-ΔF508 is tagged with HRP (horse radish peroxidase enzyme) within the ECL4 (Extracellular loop 4) of CFTR (Phuan, P.-W. et al. Synergy-based small-molecule screen using a human lung epithelial cell line yields AF508-CFTR correctors that augment VX-809 maximal efficacy. Mol. Pharmacol. 86, 42-51 (2014)). When HRP-tagged AF508-CFTR is present at the plasma membrane, the HRP enzyme activity can be measured. The amount of CFTR-ΔF508 that can be rescued to the plasma membrane is correlated with the amount of functional enzyme that can be measured.
There are several ways to measure the capacity of compounds to rescue CFTR-ΔF508 to the plasma membrane; either compounds are evaluated on their own and the impact on plasma membrane levels is measured or compounds are evaluated in combination with a co-corrector, i.e. a compound that rescues CFTR-ΔF508 to the plasma membrane but rescue can be enhanced by addition of compounds due to a complementary mode of action.
Activity of Compounds in Combination with Co-Corrector:
For this purpose doxycycline-inducible AF508-CFTR-HRP expressing CFBE4lo-cells (obtained from Gergely Lukacs, McGill University) were maintained in MEM (Minimum Essential Medium, Gibco; 31095) supplemented with 10% fetal bovine serum (Hyclone; SV30160.03) under puromycin (3 μg/mL) and G418 selection (0.2 mg/mL). For compound testing, cells were seeded at 4000 cells/well in white 384-well plates (Greiner; 781080) in 50 μL of medium containing 0.5 μg/mL doxycycline and incubated for 68 hours at 37° C., 5% CO2. On day four, 10 μL of test compounds diluted in PBS (phosphate buffered saline) were added to the plates at a final DMSO concentration of 0.1%. In order to measure compound synergy with a co-corrector, 3 μM co-corrector (3-[(2R,4R)-4-({[1-(2,2-difluoro-1,3-benzodioxol-5-yl)cyclopropyl]carbonyl}amino)-7-methoxy-3,4-dihydro-2H-chromen-2-yl]benzoic acid) was added along with test compounds. All compound plates contained negative controls (DMSO) and positive controls (3 μM co-corrector). Cell plates were incubated at 33° C., 5% CO2 for 20 hours. On day five, the cells were washed five times with phosphate-buffered saline, and HRP activity was assayed by the addition of 50 μL/well of HRP substrate (SuperSignal™ West Pico Chemiluminescent Substrate, Thermo Scientific; 34080). After incubation for 15 minutes in the dark, the chemiluminescence was measured using a plate reader (EnVision®, Perkin Elmer). Raw data were normalized to percentage activity values using the equation: 100×(Sample−Negative control)/(Positive control−Negative Control).

Structures are written as SMILES. A value given as a limit tells only on which side of the number the result lay.

For orientation: EC50 means the concentration at which the effect is half-maximal.

T1 sequence (P13569 with tags, fused parts or gaps DEL508-508): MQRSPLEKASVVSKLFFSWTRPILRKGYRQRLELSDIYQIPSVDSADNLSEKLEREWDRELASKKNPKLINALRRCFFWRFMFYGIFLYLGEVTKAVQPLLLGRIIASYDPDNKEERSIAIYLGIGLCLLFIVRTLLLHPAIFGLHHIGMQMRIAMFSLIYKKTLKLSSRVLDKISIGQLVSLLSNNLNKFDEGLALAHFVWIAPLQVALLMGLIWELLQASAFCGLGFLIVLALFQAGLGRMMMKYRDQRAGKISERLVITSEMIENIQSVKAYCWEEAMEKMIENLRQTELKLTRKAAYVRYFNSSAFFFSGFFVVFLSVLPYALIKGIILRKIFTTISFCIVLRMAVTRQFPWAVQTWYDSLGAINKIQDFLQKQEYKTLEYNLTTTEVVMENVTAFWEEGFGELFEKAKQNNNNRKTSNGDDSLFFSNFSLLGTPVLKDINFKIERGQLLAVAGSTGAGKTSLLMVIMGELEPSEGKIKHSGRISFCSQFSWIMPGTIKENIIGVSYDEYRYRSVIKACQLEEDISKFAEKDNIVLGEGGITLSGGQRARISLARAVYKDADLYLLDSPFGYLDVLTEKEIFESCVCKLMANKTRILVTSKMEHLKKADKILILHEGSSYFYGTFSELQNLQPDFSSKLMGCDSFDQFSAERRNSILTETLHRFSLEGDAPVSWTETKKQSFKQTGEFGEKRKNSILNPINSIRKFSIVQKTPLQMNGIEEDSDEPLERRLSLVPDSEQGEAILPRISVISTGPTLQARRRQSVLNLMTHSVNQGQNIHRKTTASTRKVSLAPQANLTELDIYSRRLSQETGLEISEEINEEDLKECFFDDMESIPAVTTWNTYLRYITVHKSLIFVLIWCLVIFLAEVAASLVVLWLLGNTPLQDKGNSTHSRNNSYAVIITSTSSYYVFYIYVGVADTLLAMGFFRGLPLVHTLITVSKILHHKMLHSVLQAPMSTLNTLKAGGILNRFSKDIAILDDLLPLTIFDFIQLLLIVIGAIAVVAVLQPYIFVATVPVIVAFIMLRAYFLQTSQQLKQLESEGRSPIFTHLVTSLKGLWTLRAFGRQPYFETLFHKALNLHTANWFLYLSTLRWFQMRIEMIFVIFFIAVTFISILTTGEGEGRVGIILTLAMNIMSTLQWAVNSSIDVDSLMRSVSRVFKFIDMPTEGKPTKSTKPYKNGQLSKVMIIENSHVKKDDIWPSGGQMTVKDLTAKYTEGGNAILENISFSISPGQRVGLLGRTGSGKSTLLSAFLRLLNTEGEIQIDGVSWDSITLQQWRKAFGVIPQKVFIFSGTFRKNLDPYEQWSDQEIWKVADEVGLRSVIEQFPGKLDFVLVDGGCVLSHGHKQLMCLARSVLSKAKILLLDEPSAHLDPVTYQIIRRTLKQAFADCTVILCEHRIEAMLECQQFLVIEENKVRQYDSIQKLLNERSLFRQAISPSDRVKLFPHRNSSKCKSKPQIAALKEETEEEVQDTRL

In the case of `C[C@H]1CN(c2cc(C(=O)O)nc3c2c(C2CCC2)nn3C2CCCCC2)CCN1Cc1ccccc1` [compound 881, 4-[(3S)-4-benzyl-3-methylpiperazin-1-yl]-3-cyclobutyl-1-cyclohexyl-1H-pyrazolo[3,4-b]pyridine-6-carboxylic acid], the “% Activation” value amounted to 242.75% and the EC50 was 700 nM.

Turning to `O=C(O)c1cc(N2CC(N3CCOCC3)C2)c2c(C3CCC3)nn(-c3ccccc3)c2n1` [compound 709, 3-cyclobutyl-4-[3-(morpholin-4-yl)azetidin-1-yl]-1-phenyl-1H-pyrazolo[3,4-b]pyridine-6-carboxylic acid], the “% Activation” value was found to be 223.9% and the EC50 amounted to 1670 nM.

Turning to `COCc1nn(-c2ccccc2)c2nc(C(=O)O)cc(-c3ccc(N4CCOCC4)cc3)c12` [compound 122, 3-(methoxymethyl)-4-[4-(morpholin-4-yl)phenyl]-1-phenyl-1H-pyrazolo[3,4-b]pyridine-6-carboxylic acid], the “% Activation” value was 311.75% and the concentration for a half-maximal effect (EC50) was 1770 nM.

For the compound `CC(C)(C)c1nn(-c2ccccc2)c2nc(C(=O)O)cc(-c3ccc(N4CCOCC4)cc3)c12` [compound 40, 3-tert-butyl-4-[4-(morpholin-4-yl)phenyl]-1-phenyl-1H-pyrazolo[3,4-b]pyridine-6-carboxylic acid], the “% Activation” value came to 340.8% and the EC50 worked out at 393 nM.

As for `CC(C)c1nn(-c2ccc(F)cc2)c2nc(C(=O)O)cc(OCCCN3CCCCC3)c12` [compound 653, 1-(4-fluorophenyl)-4-[3-(piperidin-1-yl)propoxy]-3-(propan-2-yl)-1H-pyrazolo[3,4-b]pyridine-6-carboxylic acid], the “% Activation” value came out at 260.3% and the 50% effective concentration (EC50) amounted to 3330 nM.

For the compound `CN(C1CCN(c2cc(C(=O)O)nc3c2c(C2CCC2)nn3-c2ccccc2)CC1)C1COC1` [compound 735, 3-cyclobutyl-4-{4-[methyl(oxetan-3-yl)amino]piperidin-1-yl}-1-phenyl-1H-pyrazolo[3,4-b]pyridine-6-carboxylic acid], the “% Activation” value amounted to 437.7% and the half-maximal effective concentration (EC50) came out at 224 nM.

Take `COCC1(F)CCN(c2cc(C(=O)O)nc3c2c(C(C)C)nn3-c2ccc(F)cc2)CC1` [compound 669, 4-[4-fluoro-4-(methoxymethyl)piperidin-1-yl]-1-(4-fluorophenyl)-3-(propan-2-yl)-1H-pyrazolo[3,4-b]pyridine-6-carboxylic acid]: the “% Activation” value came out at 315.5% and the EC50 was 795 nM.

On to `CN(C)[C@@H]1CCN(c2cc(C(=O)O)nc3c2c(C2CCC2)nn3-c2ccccc2)C1` [compound 567, 3-cyclobutyl-4-[(3R)-3-(dimethylamino)pyrrolidin-1-yl]-1-phenyl-1H-pyrazolo[3,4-b]pyridine-6-carboxylic acid], for which the “% Activation” value is 302.8% and the concentration for a half-maximal effect (EC50) amounted to 2110 nM.

`Cc1nn(-c2ccccc2)c2nc(C(=O)O)cc(-c3ccc(N4CCC(O)CC4)cc3)c12` [compound 144, 4-[4-(4-hydroxypiperidin-1-yl)phenyl]-3-methyl-1-phenyl-1H-pyrazolo[3,4-b]pyridine-6-carboxylic acid]: the “% Activation” value is reported as 338.4% and the EC50 came to 2620 nM.

As for `COCCCN1CCN(c2cc(C(=O)O)nc3c2c(C2CCC2)nn3-c2ccccc2)CC1` [compound 704, 3-cyclobutyl-4-[4-(3-methoxypropyl)piperazin-1-yl]-1-phenyl-1H-pyrazolo[3,4-b]pyridine-6-carboxylic acid], the “% Activation” value was determined as 344.1% and the concentration for a half-maximal effect (EC50) is 409 nM.

As for `O=C(O)c1cc(N2CCC3(CC2)OCCO3)c2c(C3CCC3)nn(-c3ccccc3)c2n1` [compound 700, 3-cyclobutyl-4-(1,4-dioxa-8-azaspiro[4.5]decan-8-yl)-1-phenyl-1H-pyrazolo[3,4-b]pyridine-6-carboxylic acid], the “% Activation” value is recorded as 290.9% and the EC50 amounted to 128 nM.

With `CC(=O)N1CCN(c2cc(C(=O)O)nc3c2c(C2CCC2)nn3-c2ccccc2)CC1` [compound 703, 4-(4-acetylpiperazin-1-yl)-3-cyclobutyl-1-phenyl-1H-pyrazolo[3,4-b]pyridine-6-carboxylic acid], the “% Activation” value is 374.6% and the 50% effective concentration (EC50) turned out to be 386 nM.

With `CC(O)CN1CCC(N2CCN(c3cc(C(=O)O)nc4c3c(C(C)C)nn4-c3ccc(F)cc3)CC2)CC1` (centres unmarked) [compound 742, 1-(4-fluorophenyl)-4-{4-[1-(2-hydroxypropyl)piperidin-4-yl]piperazin-1-yl}-3-(propan-2-yl)-1H-pyrazolo[3,4-b]pyridine-6-carboxylic acid], the “% Activation” value was found to be 126.1% and the concentration giving a half-maximal response (EC50) was 5000 nM.

For the compound `O=C(O)c1cc(N2CCC(OCCN3CCCCC3)CC2)c2c(C3CCC3)nn(-c3ccccc3)c2n1` [compound 730, 3-cyclobutyl-1-phenyl-4-{4-[2-(piperidin-1-yl)ethoxy]piperidin-1-yl}-1H-pyrazolo[3,4-b]pyridine-6-carboxylic acid], the “% Activation” value came out at 418.7% and the EC50 was 71.5 nM.

In the case of `O=C(O)c1cc(N2CC[C@@H](N3CCCCC3)C2)c2c(C3CCC3)nn(-c3ccccc3)c2n1` [compound 715, 3-cyclobutyl-1-phenyl-4-[(3R)-3-(piperidin-1-yl)pyrrolidin-1-yl]-1H-pyrazolo[3,4-b]pyridine-6-carboxylic acid], the “% Activation” value is given as 261.4% and the EC50 worked out at 1270 nM.

Take `CC1(c2nn(-c3ccccc3)c3nc(C(=O)O)cc(-c4ccc(N5CCOCC5)cc4)c23)CCC1` [compound 332, 3-(1-methylcyclobutyl)-4-[4-(morpholin-4-yl)phenyl]-1-phenyl-1H-pyrazolo[3,4-b]pyridine-6-carboxylic acid]: the “% Activation” value amounted to 346.12% and the concentration giving a half-maximal response (EC50) turned out to be 917 nM.

On to `CC(C)c1nn(-c2ccc(F)cc2)c2nc(C(=O)O)cc(N3CCC(N(C)C)CC3)c12` [compound 660, 4-[4-(dimethylamino)piperidin-1-yl]-1-(4-fluorophenyl)-3-(propan-2-yl)-1H-pyrazolo[3,4-b]pyridine-6-carboxylic acid], for which the “% Activation” value was 284.47% and the EC50 came to 3330 nM.

`O=C(O)c1cc(N2CCN3CCC[C@@H]3C2)c2c(C3CCC3)nn(-c3ccccc3)c2n1` [compound 721, 3-cyclobutyl-4-[(8aR)-hexahydropyrrolo[1,2-a]pyrazin-2(1H)-yl]-1-phenyl-1H-pyrazolo[3,4-b]pyridine-6-carboxylic acid]: the “% Activation” value came out at 302.1% and the EC50 amounted to 510 nM.

For the compound `CC1(c2nn(-c3ccccc3)c3nc(C(=O)O)cc(-c4ccc(N5CCOCC5)cc4)c23)COC1` [compound 113, 3-(3-methyloxetan-3-yl)-4-[4-(morpholin-4-yl)phenyl]-1-phenyl-1H-pyrazolo[3,4-b]pyridine-6-carboxylic acid], the “% Activation” value was 277% and the EC50 is 1170 nM.

`CC(C)c1nn(-c2ccc(F)cc2)c2nc(C(=O)O)cc(NC(=O)C3CCOCC3)c12` [compound 664, 1-(4-fluorophenyl)-4-[(oxane-4-carbonyl)amino]-3-(propan-2-yl)-1H-pyrazolo[3,4-b]pyridine-6-carboxylic acid]: the “% Activation” value came out at 120.6% and the concentration giving a half-maximal response (EC50) is above 10000 nM.

In the case of `CN1CCN(C(=O)C2CCN(c3cc(C(=O)O)nc4c3c(C3CCC3)nn4-c3ccccc3)CC2)CC1` [compound 739, 3-cyclobutyl-4-[4-(4-methylpiperazine-1-carbonyl)piperidin-1-yl]-1-phenyl-1H-pyrazolo[3,4-b]pyridine-6-carboxylic acid], the “% Activation” value turned out to be 327.2% and the concentration giving a half-maximal response (EC50) came to 1670 nM.

In the case of `CC(C)c1nn(-c2ccc(F)cc2)c2nc(C(=O)O)cc(N3CCC(C(=O)N4CCN(C)CC4)CC3)c12` [compound 755, 1-(4-fluorophenyl)-4-[4-(4-methylpiperazine-1-carbonyl)piperidin-1-yl]-3-(propan-2-yl)-1H-pyrazolo[3,4-b]pyridine-6-carboxylic acid], the “% Activation” value is 270.9% and the EC50 stood at 1670 nM.
